On the set-up of series [1]: method as in PMID 14498759. Conditions: humans; cited from earlier work.
Series [2] in a line: Hydrolysis in simulated gastric fluid (pH 1.2). In kind it is physicochemical. Conditions: simulated gastric fluid pH 1.2, 37 °C, after 12 h, 20 μg/mL. On the procedure:
To estimate the chemical stability of these synthesized ester prodrugs in the stomach, their hydrolysis behavior was evaluated in simulated gastric fluid (pH 1.2). Each compound (10 mg) was dissolved in ethanol (10 mL) and then serially diluted with simulated gastric fluid at a drug concentration of 20 μg/mL. […]

A short description of series [3]: Equilibrium solubility in biorelevant media. It is filed as physicochemical. To be noted: for solubility thermodynamic at 3 days: thermodynamic from solid, mean ± SD (n = 3). On the procedure:
The equilibrium solubilities of lipidic prodrugs in biorelevant media such as FaSSGF, FeSSGF, FaSSIF, and FeSSIF [32, 33] were assessed. FaSSGF was prepared with 0.08 mM of sodium taurocholate, 0.02 mM of lecithin, and 34.2 mM of NaCl in 1000 mL of distilled water (pH 1.6). FaSSIF was prepared with 3 mM of sodium taurocholate, 0.2 mM of lecithin, 19.1 mM of malate, 68.62 mM of NaCl, and 34.8 mM of NaOH in 1000 mL of distilled water (pH 6.5, osmolality: 270 mOsm∙kg^−1). FeSSGF was prepared with 230.0 mM of NaCl, 17.1 mM of acetic acid, and 29.75 mM of sodium acetate, in 1000 mL of mixture of milk (full fat 3.5%) and distilled water (pH 5.0, osmolality: 400 mOsm∙kg^−1). FeSSIF was prepared with 10 mM of sodium taurocholate, 2 mM of lecithin, 5 mM of glyceryl monooleate, 0.8 mM of sodium oleate, 55.0 mM of malate, 125.5 mM of NaCl, and 81.6 mM of NaOH in 1000 mL of distilled water (pH 5.8, osmolality: 390 mOsm∙kg^−1).
An excess amount of drug (500 mg) was added to biorelevant media in a scintillation vial. Drug suspensions were sonicated for 30 min and then shaken at 37 °C for 3 days using a shaking incubator. Samples were then centrifuged at 13,000 rpm for 10 min and the supernatant was appropriately diluted with mobile phase. The concentration of EV-FA in the medium was analyzed using HPLC as described above.

Details of series [4]: method as in PMID 27503646. To be noted: cited from earlier work.
The nature of series [5]: In vitro dissolution test in biorelevant media (USP 29 paddle method). In kind it is physicochemical. The procedure:
The United States Pharmacopeia 29 paddle method was used to assess the release profile of EV-C12 powder using a VK 7000 dissolution tester (Varian Medical Industries, Palo Alto, CA, USA). The EV-FA powder equivalent to 0.5 mg of the parent compound was immersed in 900 mL of biorelevant media maintained at 37 °C ± 0.1 °C at a paddle speed of 50 rpm. At fixed time intervals, aliquots (about 4 mL) were drawn and centrifuged at 13,000 rpm for 10 min. An equal volume of the test medium pre-warmed at 37 °C ± 0.1 °C was used for immediate replacement. The supernatant was appropriately diluted with methanol and the drug concentration in the supernatant was assayed by HPLC, as described earlier.

On the set-up of series [6]: method as in earlier work. To be noted: oral 0.5 mg with high-fat meal (945 kcal, 54.6 g fat); cited from earlier work.
Where [7] appears, read: fassgf or other biorelevant, FaSSGF pH 1.6, 37 °C, read-out: Equilibrium solubility FaSSGF.
[8] abbreviates: fassgf or other biorelevant, FeSSGF pH 5.0, 37 °C, read-out: Equilibrium solubility FeSSGF.
The mark [9] stands for this setting: FaSSIF pH 6.5, 37 °C, read-out: Equilibrium solubility FaSSIF.
Where [10] appears, read: FeSSIF pH 5.8, 37 °C, read-out: Equilibrium solubility FeSSIF.
Setting [11] is: all biorelevant media, 37 °C, 50 rpm.

These results are taken from paper PMC6017406, “Synthesis and Physicochemical Evaluation of Entecavir-Fatty Acid Conjugates in Reducing Food Effect on Intestinal Absorption” (Molecules : A Journal of Synthetic Chemistry and Natural …, 2018).

≈ marks a conversion by molar mass, not a printed value. Where two headings read alike, the source gives them in different places.

Consider `CC(C)(C)C(=O)OCOP(=O)(COCCn1cnc2c(N)ncnc21)OCOC(=O)C(C)(C)C` [adefovir dipivoxil], for which the Oral bioavailability in series [1] is given as 59%.

In series [2], `C=C1[C@H](COC(=O)CCCCCCCCC)[C@@H](O)C[C@@H]1n1cnc2c(=O)[nH]c(N)nc21` [EV-C10, ((1R,3S,5S)-3-(2-Amino-6-oxo-1H-purin-9(6H)-yl)-5-hydroxy-2-methylenecyclopentyl)methyl decanoate] gave a Hydrolyzed percentage of 44.4%. Besides, the solubility thermodynamic at 3 days in series [3] (setting [7]) amounted to 4.41 ± 0.1 µg/mL (≈ 10.2 µM); in series [3] (setting [8]), 61.9 ± 3.2 µg/mL (≈ 143 µM); in series [3] (setting [9]), 6.47 ± 0.6 µg/mL (≈ 15 µM); in series [3] (setting [10]) it was 66.6 ± 4.4 µg/mL (≈ 154 µM).

`C=C1[C@H](COC(=O)CCCCCCC)[C@@H](O)C[C@@H]1n1cnc2c(=O)[nH]c(N)nc21` [EV-C8, ((1R,3S,5S)-3-(2-Amino-6-oxo-1H-purin-9(6H)-yl)-5-hydroxy-2-methylenecyclopentyl)methyl octanoate]: in series [2], the Hydrolyzed percentage was 46.2%. The solubility thermodynamic at 3 days in series [3] (setting [7]) amounted to 4.74 ± 0.3 µg/mL (≈ 11.7 µM); in series [3] (setting [8]) it was 38.2 ± 1.5 µg/mL (≈ 94.7 µM); in series [3] (setting [9]) it was 5.74 ± 0.3 µg/mL (≈ 14.2 µM); in series [3] (setting [10]), 36.7 ± 1.2 µg/mL (≈ 91 µM).

As to `C=C1[C@H](COC(=O)CCCCC)[C@@H](O)C[C@@H]1n1cnc2c(=O)[nH]c(N)nc21` [EV-C6, (1R,3S,5S)-3-(2-Amino-6-oxo-1H-purin-9(6H)-yl)-5-hydroxy-2-methylenecyclopentyl)methyl hexanoate], the Hydrolyzed percentage in series [2] is listed as 59.1%. Further, the solubility thermodynamic at 3 days in series [3] (setting [7]) was found to be 4.84 ± 0.5 µg/mL (≈ 12.9 µM); in series [3] (setting [8]), 24.9 ± 1.4 µg/mL (≈ 66.3 µM); in series [3] (setting [9]), 5.54 ± 0.6 µg/mL (≈ 14.8 µM); in series [3] (setting [10]) it was 25.2 ± 2.3 µg/mL (≈ 67.1 µM).

As usually defined, the pKa is the negative logarithm of the acid dissociation constant. In general, Solubility refers to the concentration that dissolves in the medium under given conditions. Broadly, the logP is a log measure of how a compound divides between an organic and an aqueous phase. What is called solubility is the concentration that dissolves in the medium under given conditions. For the compound `C=C1[C@H](CO)[C@@H](O)C[C@@H]1n1cnc2c(=O)nc(N)[nH]c21` [EV, 2-amino-9-[(1S,3R,4S)-4-hydroxy-3-(hydroxymethyl)-2-methylidenecyclopentyl]-3H-purin-6-one, reference compound], in series [4], the pKa is given as 10.5. Also, the Solubility in series [4] (distilled water at 25 °C) was 2400 µg/mL (≈ 8660 µM). For the same compound, the logP in series [4] (pH 4 to 10) is −1.110. The “Time to complete release” value in series [5] (all biorelevant media (FaSSGF, FaSSIF, FeSSGF, FeSSIF), 37 °C, 50 rpm) is given as at most 15 min. Moreover, the solubility at 3 days in series [3] (biorelevant media (FaSSGF, fassgf or other biorelevant, thermodynamic from solid), FaSSGF, FaSSIF, FeSSGF, FeSSIF, 37 °C, read-out: Aqueous solubility in all media tested) is over 1600 µg/mL. The solubility thermodynamic at 3 days in series [3] (setting [7]) is 8940 ± 92 µg/mL (≈ 32200 µM); in series [3] (setting [8]) it was 2152 ± 13 µg/mL (≈ 7760 µM); in series [3] (setting [9]), 1620 ± 23 µg/mL (≈ 5860 µM); in series [3] (setting [10]), 2240 ± 52 µg/mL (≈ 8080 µM). Moreover, the “Decrease in maximum drug concentration in plasma” value in series [6] is recorded as 44–46%.

As to `Nc1ncnc2c1ncn2CCOCP(=O)(O)O` [hydrophilic parent compound], in series [1], the Oral bioavailability is on record as 12%.

For `C=C1[C@H](COC(=O)CCCCCCCCCCC)[C@@H](O)C[C@@H]1n1cnc2c(=O)[nH]c(N)nc21` [EV-C12, ((1R,3S,5S)-3-(2-Amino-6-oxo-1H-purin-9(6H)-yl)-5-hydroxy-2-methylenecyclopentyl)methyl dodecanoate], the “Percent released within 30 min” value in series [5] (setting [11]) is recorded as “more than 50%”. The “Percent released/dissolved within 2 h” value in series [5] (setting [11]) was “more than 90%”. Also, the “Concentration of EV in dissolution medium formed by hydrolysis of the lipidic compound” value in series [5] (all media) was “less than 1%”. Besides, the “Release rate constant (Hixon-Crowell cube-root model)” value in series [5] (fourth medium listed (presumably FeSSIF), r^2 = 0.933) worked out at 0.053 mg^1/3/h; in series [5] (second medium listed (presumably FaSSIF), r^2 = 0.914) it was 0.036 mg^1/3/h; in series [5] (third medium listed (presumably FeSSGF), r^2 = 0.879) it was 0.048 mg^1/3/h. Besides, the Hydrolyzed percentage in series [2] was 22.5%. Besides, the solubility thermodynamic at 3 days in series [3] (setting [7]) worked out at 4.82 ± 0.2 µg/mL (≈ 10.5 µM); in series [3] (setting [8]), 76.6 ± 4 µg/mL (≈ 167 µM); in series [3] (setting [9]), 6.5 ± 0.2 µg/mL (≈ 14.1 µM); in series [3] (setting [10]), 78.8 ± 7.7 µg/mL (≈ 171 µM).
